According to ChEMBL document CHEMBL3870335, “Bioactivity of topologically confined gramicidin A dimers” (Bioorg Med Chem, 2017):
Values after ≈ are worked out from the molar mass of the structure shown.

Assays:
[1] = Stability of the compound in MeOH assessed as negative cotton effect at 50 uM by CD spectroscopic method; assay type: physicochemical
[2] = Stability of the compound in 1,4-dioxane assessed as negative cotton effect at 50 uM by CD spectroscopic method; assay type: physicochemical
[3] = Hemolytic activity against human erythrocytes at 20 to 140 uM after 30 mins; assay type: ADME, cell-based; settings: erythrocyte, 0.5 h
[4] = Stability of the compound in THF assessed as negative cotton effect at 50 uM by CD spectroscopic method; assay type: physicochemical
[5] = Stability of the compound in acetonitrile assessed as negative cotton effect at 50 uM by CD spectroscopic method; assay type: physicochemical
[6] = Stability of the compound in n-Octanol assessed as negative cotton effect at 50 uM by CD spectroscopic method; assay type: physicochemical
[7] = test system: Enterococcus faecalis; experiment: Antimicrobial activity against Enterococcus faecalis ATCC 29212 after 16 to 20 hrs by broth microdilution method; assay type: functional
[8] = test system: Plasmodium falciparum; experiment: Antimalarial activity against chloroquine-sensitive Plasmodium falciparum 3D7 after 72 hrs by NBT based LDH assay; assay type: functional; settings: 3D7, 72 h
[9] = test system: Staphylococcus epidermidis; experiment: Antimicrobial activity against Staphylococcus epidermidis PP62A after 16 to 20 hrs by broth microdilution method; assay type: functional
[10] = test system: Streptococcus pneumoniae; experiment: Antimicrobial activity against Streptococcus pneumoniae serotype 19A after 16 to 20 hrs by broth microdilution method; assay type: functional
[11] = test system: Pseudomonas aeruginosa; experiment: Antimicrobial activity against Pseudomonas aeruginosa ATCC 27853 after 16 to 20 hrs by broth microdilution method; assay type: functional
[12] = test system: Enterococcus faecium; experiment: Antimicrobial activity against Enterococcus faecium DSMZ 20477 after 16 to 20 hrs by broth microdilution method; assay type: functional
[13] = test system: Staphylococcus aureus; experiment: Antimicrobial activity against methicillin-resistant Staphylococcus aureus ATCC 43300 after 16 to 20 hrs by broth microdilution method; assay type: functional
[14] = test system: Plasmodium falciparum; experiment: Antimalarial activity against chloroquine-resistant Plasmodium falciparum Dd2 after 72 hrs by NBT based LDH assay; assay type: functional; settings: Dd2, 72 h
[15] = test system: Escherichia coli; experiment: Antimicrobial activity against Escherichia coli ATCC 25922 after 16 to 20 hrs by broth microdilution method; assay type: functional
[16] = test system: Klebsiella pneumoniae; experiment: Antimicrobial activity against Klebsiella pneumoniae ATCC 13883 after 16 to 20 hrs by broth microdilution method; assay type: functional
[17] = test system: Proteus mirabilis; experiment: Antimicrobial activity against Proteus mirabilis ATCC 7002 after 16 to 20 hrs by broth microdilution method; assay type: functional

Stability [5] | Compound | Stability [1] | Stability [2] | Activity [3] | Stability [4] | Stability [6] | MIC [7] | IC50 [8] | MIC [9] | MIC [10] | MIC [11] | MIC [12] | MIC [13] | IC50 [14] | MIC [15] | MIC [16] | MIC [17]
Stable | CC(=O)N[C@H](C(=O)NCC(=O)N[C@@H](C)C(=O)N[C@H](CC(C)C)C(=O)N[C@@H](C)C(=O)N[C@@H](C(=O)N[C@H](C(=O)N[C@@H](C(=O)N[C@@H](Cc1c[nH]c2ccccc12)C(=O)N[C@H](CC(C)C)C(=O)N[C@@H](Cc1c[nH]c2ccccc12)C(=O)N[C@H](CC(C)C)C(=O)N[C@@H](Cc1c[nH]c2ccccc12)C(=O)N[C@H](CC(C)C)C(=O)N[C@@H](Cc1c[nH]c2ccccc12)C(=O)NCCSSCCC(=O)N[C@H](C(=O)NCC(=O)N[C@@H](C)C(=O)N[C@H](CC(C)C)C(=O)N[C@@H](C)C(=O)N[C@@H](C(=O)N[C@H](C(=O)N[C@@H](C(=O)N[C@@H](Cc1c[nH]c2ccccc12)C(=O)N[C@H](CC(C)C)C(=O)N[C@@H](Cc1c[nH]c2ccccc12)C(=O)N[C@H](CC(C)C)C(=O)N[C@@H](Cc1c[nH]c2ccccc12)C(=O)N[C@H](CC(C)C)C(=O)N[C@@H](Cc1c[nH]c2ccccc12)C(=O)NCCO)C(C)C)C(C)C)C(C)C)C(C)C)C(C)C)C(C)C)C(C)C)C(C)C | Stable | Stable | Non-Toxic | Stable | Stable | – | – | – | – | – | – | – | – | – | – | –
– | CC(=O)N[C@H](C(=O)NCC(=O)N[C@@H](C)C(=O)N[C@H](CC(C)C)C(=O)N[C@@H](C)C(=O)N[C@@H](C(=O)N[C@H](C(=O)N[C@@H](C(=O)N[C@@H](Cc1c[nH]c2ccccc12)C(=O)N[C@H](CC(C)C)C(=O)N[C@@H](Cc1c[nH]c2ccccc12)C(=O)N[C@H](CC(C)C)C(=O)N[C@@H](Cc1c[nH]c2ccccc12)C(=O)N[C@H](CC(C)C)C(=O)N[C@@H](Cc1c[nH]c2ccccc12)C(=O)NCCSSCCNC(=O)[C@H](Cc1c[nH]c2ccccc12)NC(=O)[C@@H](CC(C)C)NC(=O)[C@H](Cc1c[nH]c2ccccc12)NC(=O)[C@@H](CC(C)C)NC(=O)[C@H](Cc1c[nH]c2ccccc12)NC(=O)[C@@H](CC(C)C)NC(=O)[C@H](Cc1c[nH]c2ccccc12)NC(=O)[C@H](NC(=O)[C@@H](NC(=O)[C@H](NC(=O)[C@H](C)NC(=O)[C@@H](CC(C)C)NC(=O)[C@H](C)NC(=O)CNC(=O)[C@@H](NC(C)=O)C(C)C)C(C)C)C(C)C)C(C)C)C(C)C)C(C)C)C(C)C)C(C)C | Stable | Stable | Non-Toxic | Stable | Stable | > 64 µg/mL | 10 nM | > 64 µg/mL | 0.1 µg/mL (≈ 0.0262 µM) | > 64 µg/mL | > 64 µg/mL | > 64 µg/mL | 0.2 nM | > 64 µg/mL | > 64 µg/mL | > 64 µg/mL
